According to patent US9750805B2, “Calcium flux agonists and methods therefor” (Nant Holdings IP, LLC, priority 2012, dated 2017):

Tested on: methicillin-sensitive S. aureus (MSSA)
Assay: Direct antibiotic activity in liquid culture assay, MSSA
Type: cell-based
Method: Consistent with these and previous results regarding their inherent antibiotic activity against S. aureus, the inventors confirmed the direct antibiotic activity of both ionophores for direct antibiotic activity on methicillin-sensitive S. aureus (MSSA).
To determine the antibiotic sensitivity of S. aureus, cultures were grown overnight in tryptic soy broth (Cellgro). The resulting cultures were used to inoculate new cultures to ensure log phase growth prior to the start of the experiment. Once the bacteria had reached log phase the bacteria was diluted to the appropriate OD600˜0.05 and transferred to a 24-well plate. Compounds of interest were added and plates were incubated in a shaking incubator at 37° C. Aliquots were removed at various time points and their respective OD600 was measured using a BioTek Synergy2 microplate reader (BioTek, Winooski, Vt.). For wells whose turbidity was affected by the addition of the compounds of interest, aliquots were removed and plated on tryptic soy agar (Cellgro) and incubated overnight in a 37° C. incubated and counted the following day. Thus, it should be appreciated that the calcium flux agonists are effective in antimicrobial treatments via an indirect effect, most likely due to the enhanced production of IL-8 and increased NF-κB-driven transcription.

CNc1ccc2oc(C[C@H]3O[C@@]4(CC[C@H]3C)O[C@H]([C@H](C)C(=O)c3ccc[nH]3)[C@H](C)C[C@H]4C)nc2c1C(=O)O [A23187, calcimycin]
direct antibiotic activity against MSSA: the more active compound
